Assay results: patent publication US20230085307A1, “PYRIDAZINONE COMPOUND AND HERBICIDE” (NISSAN CHEMICAL CORPORATION, priority 2019, published 2023)

Columns and labels:
[1] = test system: chickweed; test: Test Example 5: herbicidal effect by foliage application, plastic box (Table 20, symbol P); format: in vivo, common chickweed (Stellaria media); conditions: foliage application, 320 g/ha, three weeks after application
In short: (§1)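 Plants were sown into sterilized diluvial soil under about 1.5 cm cover and kept in a greenhouse at 25° C. to 30° C. Fourteen days on, foliage received an even spray of the diluted emulsion. Herbicidal or crop effect was judged three weeks afterwards.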

[2] = test system: Italian ryegrass; test: Test Example 4: herbicidal effect by soil treatment (Table 19, symbol K); format: in vivo, Italian ryegrass (Lolium multiflorum); conditions: amount of applied herbicide 320 g/ha
In short: (§2)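 In this soil treatment, the formulated compound reached the seeds only through the soil: seeds were buried about 1.5 cm deep in sterilized diluvial soil, then the diluted emulsion was sprayed over the surface. After three weeks at 25° C. to 30° C. in a greenhouse, effects were graded on criteria from an earlier test.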

[3] = test system: Japanese bulrush; test: Test Example 1: herbicidal activity, application before weed generation under submerged conditions (Table 16, symbol B); format: in vivo, Japanese bulrush (Schoenoplectus juncoides); conditions: amount of applied herbicide 320 g/ha
In short: (§3)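 Submerged Wagner pots (alluvial soil, 4 cm water) sown with weed seeds and planted with 2.5-leaf rice seedlings; emulsifiable concentrate diluted in water applied to water surface on sowing day. Held in greenhouse at 25-30 °C; injury scored 0-5 by herbicidal rate after three weeks.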

[4] = test system: false cleavers; test: Test Example 4: herbicidal effect by soil treatment (Table 19, symbol Q); format: in vivo, false cleavers (Galium spurium); conditions: amount of applied herbicide 320 g/ha
In short: as §2

[5] = test system: Chinese sprangletop; test: Test Example 3: herbicidal effect by foliage application, Wagner pot (Table 18, symbol D); format: in vivo, chinese sprangletop (Leptochloa chinensis)
In short: (§4)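 Plants were sown in alluvial soil held under 0.1–0.5 cm standing water and grown 14 days in a greenhouse at 25–30 °C. An emulsifiable formulation, water-diluted to the set dose, was then sprayed onto the foliage, and effects were scored three weeks later using previously defined criteria.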

[6] = test system: southern crabgrass; test: Test Example 5: herbicidal effect by foliage application, plastic box (Table 20, symbol F); format: in vivo, southern crabgrass (Digitaria ciliaris); conditions: foliage application, 320 g/ha, three weeks after application
In short: as §1

[7] = test system: oval-leafed pondweed; test: Test Example 1: herbicidal activity, application before weed generation under submerged conditions (Table 16, symbol C); format: in vivo, oval-leafed pondweed (Monochoria vaginalis); conditions: amount of applied herbicide 320 g/ha
In short: as §3

[8] = test system: lambsquarters; test: Test Example 5: herbicidal effect by foliage application, plastic box (Table 20, symbol O); format: in vivo, lambsquarters (Chenopodium album); conditions: foliage application, 320 g/ha, three weeks after application
In short: as §1

[9] = test system: velvetleaf; test: Test Example 4: herbicidal effect by soil treatment (Table 19, symbol M); format: in vivo, velvetleaf (Abutilon theophrasti); conditions: amount of applied herbicide 320 g/ha
In short: as §2

[10] = test system: windgrass; test: Test Example 4: herbicidal effect by soil treatment (Table 19, symbol L); format: in vivo, windgrass (Apera spica-venti); conditions: amount of applied herbicide 320 g/ha
In short: as §2

[11] = test system: rice flat sedge; test: Test Example 3: herbicidal effect by foliage application, Wagner pot (Table 18, symbol E); format: in vivo, rice flat sedge (Cyperus iria)
In short: as §4

[12] = test system: southern crabgrass; test: Test Example 4: herbicidal effect by soil treatment (Table 19, symbol F); format: in vivo, southern crabgrass (Digitaria ciliaris); conditions: amount of applied herbicide 320 g/ha
In short: as §2

[13] = test system: redroot pigweed; test: Test Example 4: herbicidal effect by soil treatment (Table 19, symbol N); format: in vivo, redroot pigweed (Amaranthus retroflexus); conditions: amount of applied herbicide 320 g/ha
In short: as §2

[14] = test system: velvetleaf; test: Test Example 5: herbicidal effect by foliage application, plastic box (Table 20, symbol M); format: in vivo, velvetleaf (Abutilon theophrasti); conditions: foliage application, 320 g/ha, three weeks after application
In short: as §1

[15] = test system: green foxtail; test: Test Example 5: herbicidal effect by foliage application, plastic box (Table 20, symbol G); format: in vivo, green foxtail (Setaria viridis); conditions: foliage application, 320 g/ha, three weeks after application
In short: as §1

[16] = test system: persian speedwell; test: Test Example 5: herbicidal effect by foliage application, plastic box (Table 20, symbol R); format: in vivo, Persian speedwell (Veronica persica); conditions: foliage application, 320 g/ha, three weeks after application
In short: as §1

[17] = test system: late watergrass; test: Test Example 1: herbicidal activity, application before weed generation under submerged conditions (Table 16, symbol A); format: in vivo, late watergrass (Echinochloa oryzicola); conditions: amount of applied herbicide 320 g/ha
In short: as §3

[18] = test system: green foxtail; test: Test Example 4: herbicidal effect by soil treatment (Table 19, symbol G); format: in vivo, green foxtail (Setaria viridis); conditions: amount of applied herbicide 320 g/ha
In short: as §2

[19] = test system: barnyard grass; test: Test Example 4: herbicidal effect by soil treatment (Table 19, symbol H); format: in vivo, barnyard grass (Echinochloa crus-galli); conditions: amount of applied herbicide 320 g/ha
In short: as §2

[20] = test system: redroot pigweed; test: Test Example 5: herbicidal effect by foliage application, plastic box (Table 20, symbol N); format: in vivo, redroot pigweed (Amaranthus retroflexus); conditions: foliage application, 320 g/ha, three weeks after application
In short: as §1

[21] = test system: windgrass; test: Test Example 5: herbicidal effect by foliage application, plastic box (Table 20, symbol L); format: in vivo, windgrass (Apera spica-venti); conditions: foliage application, 320 g/ha, three weeks after application
In short: as §1

[22] = test system: barnyard grass; test: Test Example 3: herbicidal effect by foliage application, Wagner pot (Table 18, symbol H); format: in vivo, barnyard grass (Echinochloa crus-galli)
In short: as §4

[23] = test system: wild oat; test: Test Example 5: herbicidal effect by foliage application, plastic box (Table 20, symbol I); format: in vivo, wild oat (Avena fatua); conditions: foliage application, 320 g/ha, three weeks after application
In short: as §1

[24] = test system: persian speedwell; test: Test Example 4: herbicidal effect by soil treatment (Table 19, symbol R); format: in vivo, Persian speedwell (Veronica persica); conditions: amount of applied herbicide 320 g/ha
In short: as §2

[25] = test system: blackgrass; test: Test Example 4: herbicidal effect by soil treatment (Table 19, symbol J); format: in vivo, blackgrass (Alopecurus myosuroides); conditions: amount of applied herbicide 320 g/ha
In short: as §2

[26] = test system: lambsquarters; test: Test Example 4: herbicidal effect by soil treatment (Table 19, symbol O); format: in vivo, lambsquarters (Chenopodium album); conditions: amount of applied herbicide 320 g/ha
In short: as §2

[27] = test system: wild oat; test: Test Example 4: herbicidal effect by soil treatment (Table 19, symbol I); format: in vivo, wild oat (Avena fatua); conditions: amount of applied herbicide 320 g/ha
In short: as §2

[28] = test system: barnyard grass; test: Test Example 5: herbicidal effect by foliage application, plastic box (Table 20, symbol H); format: in vivo, barnyard grass (Echinochloa crus-galli); conditions: foliage application, 320 g/ha, three weeks after application
In short: as §1

[29] = test system: blackgrass; test: Test Example 5: herbicidal effect by foliage application, plastic box (Table 20, symbol J); format: in vivo, blackgrass (Alopecurus myosuroides); conditions: foliage application, 320 g/ha, three weeks after application
In short: as §1

[30] = test system: Italian ryegrass; test: Test Example 5: herbicidal effect by foliage application, plastic box (Table 20, symbol K); format: in vivo, Italian ryegrass (Lolium multiflorum); conditions: foliage application, 320 g/ha, three weeks after application
In short: as §1

[31] = test system: chickweed; test: Test Example 4: herbicidal effect by soil treatment (Table 19, symbol P); format: in vivo, common chickweed (Stellaria media); conditions: amount of applied herbicide 320 g/ha
In short: as §2

[32] = amount of applied herbicide 320 g/ha

Structure (SMILES): Cc1nn(CC#N)c(=O)c(-c2c(-c3ccc(F)cc3)sc3ccc(F)cc23)c1O [2-430]
- P: chickweed, herbicidal effect grade [1]: 5 (Herbicidal rate of 90% or more (almost completely withered))
- herbicidal effect, K: Italian ryegrass [2]: 0 (Herbicidal rate of 5% or less (almost no effect))
- Herbicidal effect, B: Japanese bulrush [3]: 0 (Herbicidal rate of 5% or less (almost no effect))
- herbicidal effect, Q: false cleavers [4]: 0 (Herbicidal rate of 5% or less (almost no effect))
- herbicidal effect on D: Chinese sprangletop [5, 32]: 0 (Herbicidal rate of 5% or less (almost no effect))
- F: southern crabgrass, herbicidal effect grade [6]: 0 (Herbicidal rate of 5% or less (almost no effect))
- Herbicidal effect, C: oval-leafed pondweed [7]: 0 (Herbicidal rate of 5% or less (almost no effect))
- O: lambsquarters, herbicidal effect grade [8]: 3 (Herbicidal rate of 40% or more and less than 70%)
- herbicidal effect, M: velvetleaf [9]: 2 (Herbicidal rate of 20% or more and less than 40%)
- herbicidal effect, L: windgrass [10]: 0 (Herbicidal rate of 5% or less (almost no effect))
- herbicidal effect on E: rice flat sedge [11, 32]: 3 (Herbicidal rate of 40% or more and less than 70%)
- herbicidal effect, F: southern crabgrass [12]: 0 (Herbicidal rate of 5% or less (almost no effect))
- herbicidal effect, N: redroot pigweed [13]: 5 (Herbicidal rate of 90% or more (almost completely withered))
- M: velvetleaf, herbicidal effect grade [14]: 2 (Herbicidal rate of 20% or more and less than 40%)
- G: green foxtail, herbicidal effect grade [15]: 2 (Herbicidal rate of 20% or more and less than 40%)
- R: persian speedwell, herbicidal effect grade [16]: 4 (Herbicidal rate of 70% or more and less than 90%)
- Herbicidal effect, A: late watergrass [17]: 3 (Herbicidal rate of 40% or more and less than 70%)
- herbicidal effect, G: green foxtail [18]: 0 (Herbicidal rate of 5% or less (almost no effect))
- herbicidal effect, H: barnyard grass [19]: 0 (Herbicidal rate of 5% or less (almost no effect))
- N: redroot pigweed, herbicidal effect grade [20]: 3 (Herbicidal rate of 40% or more and less than 70%)
- L: windgrass, herbicidal effect grade [21]: 0 (Herbicidal rate of 5% or less (almost no effect))
- herbicidal effect on H: barnyard grass [22, 32]: 2 (Herbicidal rate of 20% or more and less than 40%)
- I: wild oat, herbicidal effect grade [23]: 0 (Herbicidal rate of 5% or less (almost no effect))
- herbicidal effect, R: persian speedwell [24]: 0 (Herbicidal rate of 5% or less (almost no effect))
- herbicidal effect, J: blackgrass [25]: 0 (Herbicidal rate of 5% or less (almost no effect))
- herbicidal effect, O: lambsquarters [26]: 1 (Herbicidal rate of 5% or more and less than 20%)
- herbicidal effect, I: wild oat [27]: 0 (Herbicidal rate of 5% or less (almost no effect))
- H: barnyard grass, herbicidal effect grade [28]: 1 (Herbicidal rate of 5% or more and less than 20%)
- J: blackgrass, herbicidal effect grade [29]: 0 (Herbicidal rate of 5% or less (almost no effect))
- K: Italian ryegrass, herbicidal effect grade [30]: 3 (Herbicidal rate of 40% or more and less than 70%)

Structure (SMILES): CCCC(=O)Oc1c(C)nn(C)c(=O)c1-c1c(-c2ccc(F)cc2OC)sc2cc(OC)c(OC)cc12 [5-061]
- K: Italian ryegrass, herbicidal effect grade [2]: 0 (Herbicidal rate of 5% or less (almost no effect))
- Herbicidal effect, B: Japanese bulrush [3]: 3 (Herbicidal rate of 40% or more and less than 70%)
- Q: false cleavers, herbicidal effect grade [4]: 0 (Herbicidal rate of 5% or less (almost no effect))
- herbicidal effect on Chinese sprangletop (D) ([5]; 320 g/ha): 3 (Herbicidal rate of 40% or more and less than 70%)
- herbicidal effect on southern crabgrass (F) [6]: 4 (Herbicidal rate of 70% or more and less than 90%)
- Herbicidal effect, C: oval-leafed pondweed [7]: 3 (Herbicidal rate of 40% or more and less than 70%)
- herbicidal effect on lambsquarters (O) [8]: 3 (Herbicidal rate of 40% or more and less than 70%)
- M: velvetleaf, herbicidal effect grade [9]: 0 (Herbicidal rate of 5% or less (almost no effect))
- L: windgrass, herbicidal effect grade [10]: 0 (Herbicidal rate of 5% or less (almost no effect))
- herbicidal effect on rice flat sedge (E) ([11]; 320 g/ha): 4 (Herbicidal rate of 70% or more and less than 90%)
- F: southern crabgrass, herbicidal effect grade [12]: 0 (Herbicidal rate of 5% or less (almost no effect))
- P: chickweed, herbicidal effect grade [31]: 3 (Herbicidal rate of 40% or more and less than 70%)
- N: redroot pigweed, herbicidal effect grade [13]: 0 (Herbicidal rate of 5% or less (almost no effect))
- herbicidal effect on velvetleaf (M) [14]: 0 (Herbicidal rate of 5% or less (almost no effect))
- herbicidal effect on green foxtail (G) [15]: 4 (Herbicidal rate of 70% or more and less than 90%)
- herbicidal effect on persian speedwell (R) [16]: 5 (Herbicidal rate of 90% or more (almost completely withered))
- Herbicidal effect, A: late watergrass [17]: 5 (Herbicidal rate of 90% or more (almost completely withered))
- G: green foxtail, herbicidal effect grade [18]: 0 (Herbicidal rate of 5% or less (almost no effect))
- H: barnyard grass, herbicidal effect grade [19]: 0 (Herbicidal rate of 5% or less (almost no effect))
- herbicidal effect on windgrass (L) [21]: 2 (Herbicidal rate of 20% or more and less than 40%)
- herbicidal effect on barnyard grass (H) ([22]; 320 g/ha): 5 (Herbicidal rate of 90% or more (almost completely withered))
- herbicidal effect on wild oat (I) [23]: 4 (Herbicidal rate of 70% or more and less than 90%)
- R: persian speedwell, herbicidal effect grade [24]: 2 (Herbicidal rate of 20% or more and less than 40%)
- J: blackgrass, herbicidal effect grade [25]: 0 (Herbicidal rate of 5% or less (almost no effect))
- O: lambsquarters, herbicidal effect grade [26]: 0 (Herbicidal rate of 5% or less (almost no effect))
- I: wild oat, herbicidal effect grade [27]: 0 (Herbicidal rate of 5% or less (almost no effect))
- herbicidal effect on barnyard grass (H) [28]: 4 (Herbicidal rate of 70% or more and less than 90%)
- herbicidal effect on blackgrass (J) [29]: 4 (Herbicidal rate of 70% or more and less than 90%)
- herbicidal effect on Italian ryegrass (K) [30]: 4 (Herbicidal rate of 70% or more and less than 90%)
